Results published in patent US20200407700A1, “COMPOSITIONS OF PARP14 MODULATORS AND/OR MUTANTS AND THERAPEUTIC USE THEREOF” (President and Fellows of Harvard College, priority 2018, published 2020).
Entries after “also recorded” stand apart in the source; their conditions may differ.

Legend:
elderly mice = settings: cited from earlier work
[1] = system: bone marrow derived macrophages (BMDMs); experiment: NAD^+ levels in LPS-treated bone marrow derived macrophages (enzyme-coupled luciferase assay); format: cell-based, mouse; settings: for LPS-induced drop in NAD^+ levels / protection of NAD^+ levels in macrophages exposed to LPS: BMDMs; for LPS-induced drop in NAD^+ levels: 6 hours of treatment, in the presence of LPS
Description: FIG. 2 contains 13 panels, 2A-2M, depicting that PARP14 is necessary for LPS-induced NAD^+ destruction. FIG. 2A-2C show NAD^+ levels in response to LPS in wild-type or (FIG. 2A) CD38KO, (FIG. 2B) SARM1KO, and (FIG. 2C) PARP1KO BMDMs. […] FIGS. 2K and 2L show NAD^+ (2K) and NADH levels (2L) in PARP14KO BMDMs.
FIG. 3 contains 6 panels, 3A-3F, depicting PARP14 catalytic mechanism. […] FIG. 3E depicts NAD^+ levels after treatment with NSC-61610. FIG. 3F depicts NAD^+ levels after treatment with NSC-127133 and LPS.
NAD^+ levels rapidly decline upon LPS-activation in bone marrow derived macrophages (BMDMs). […] NAD^+ and NADH levels recover after about 24 hours (FIG. 1A-1B). […] Using a genetically-encoded fluorescent reporter in RAW264.7 immortalized macrophages (FIG. 1C), it was confirmed that these changes occur in all three major compartments of the cell. Mass spectrometry-based metabolomics in BMDMs were performed which confirmed that an increase in NAD^+ hydrolysis is driving the phenomenon (FIG. 1D-1E). Additional experiments using flux metabolomics in collaboration with Professor Marie Migaud at the University of South Alabama may be used in order to determine the rates of consumption and salvage of NAD^+, before and after treatment with LPS. In such experiments, isotopically-labeled NMN (an NAD^+ precursor) are synthesized with labels on the phosphate, ribose, and nicotinamide groups, which allows tracing of multiple downstream metabolites.

[2] = system: inflammasome (caspase-1 cleavage); experiment: Inflammasome activation measured by Caspase 1 cleavage (Casp-1 p20); format: cell-based; settings: only somewhat reproducible
Description: (§1) FIG. 4 contains 5 panels, 4A-4E, depicting that NAD^+ decline promotes inflammasome activation. FIG. 4A-4D show secretion of (FIG. 4A) IL-1β, (FIG. 4B) IL-18, (FIG. 4C) IL-6, and (FIG. 4D) TNF in response to LPS and nigericin, without and with NMN.
One hallmark of inflammasome activation is cleavage of caspase-1 to generate a 20 kD peptide.

[3] = system: secretion of IL-1β, IL-18, IL-6 and TNF; experiment: Cytokine secretion in response to LPS and nigericin; format: cell-based
Description: as §1
IL-1β and IL-18 are unique cytokines in that they require activation of an inflammasome to be processed for release.

PARP1 = PARP1 (Homo sapiens, UniProt P09874); settings: cited from earlier work
spleen NAD+ levels = experiment: NAD^+ levels in aged spleens after I.P. injection; format: in vivo; settings: 27 month old mice, 20 mg/kg intraperitoneally, 2 hours post-injection
Experimental: 27 month old mice were injected intraperitoneally with 20 mg/kg of OUL35 dissolved in PBS with 40% HP-beta-cyclodextrin and 1% carboxymethylcellulose. Spleens were collected 2 hours post-injection and assayed for NAD+ levels.

PARPs 4, 10, 14, and 16 = settings: cited from earlier work
BMDM = experiment: Polar metabolomics on BMDM extracts; format: cell-based, mouse
Experimental: (§2) Polar metabolomics on BMDM extracts treated with LPS, OUL35, and NRH were performed. […] Recently, Prof. Marcia Haigis (HMS) published that Sirt3, an NAD^+-sensor, regulates nucleotide metabolism (Gonzalez Herrera et al., 2018). While an increase in nucleotides could promote DNA synthesis, macrophages are reported to suppress the cell cycle in response to LPS. However, macrophages do upregulate reactive oxygen species (ROS) production for bactericidal purposes in response to LPS, and two purines—hypoxanthine and xanthine—are important for this ROS production via the enzyme xanthine oxidase (XO). With the hypothesis that macrophages increase these metabolites for increased ROS production in mind, PARPi and NRH suppress nigericin-induced ROS production, although this experiment must be repeated (FIG. 12O).

[4] = system: poly-ADP-ribose (PAR) levels; experiment: Poly-ADP-ribose (PAR) levels in LPS-treated macrophages; format: cell-based; settings: NAD+ repletion
Description: NMN, which raises levels of NAD^+, can suppress secretion of IL-1β and IL-18. […] The most robust observation seen is a restoration of poly-ADP-ribose (PAR) levels (FIG. 11B). While this is clearly an effect of restoring NAD^+ levels, its significance on macrophage function is unclear. […] Inflammatory gene expression may be altered, but this must be repeated with an increased N-value (FIG. 11D-F).

[5] = system: reactive oxygen species (ROS) production; experiment: Nigericin-induced ROS production in macrophages; format: cell-based; settings: 30 min nigericin treatment; preliminary, must be repeated
Experimental: as §2

LPS induced sepsis = experiment: LPS-induced sepsis (I.P. injection of LPS); format: in vivo; settings: mice
Experimental: One common assay to measure inflammation in vivo is with LPS induced sepsis, whereby LPS is injected intraperitoneally, resulting in a lethal cytokine storm. Drugs or mutations that suppress inflammation increase survival. Mice euthanized 6 hours after LPS injection show in increase in PARP14 levels in multiple tissues (FIG. 13A-D). NAD^+ levels fall in multiple tissues, and in at least in spleen, NAD^+ levels can be protected with a co-injection of PARPi and NRH (FIG. 13E).

influenza = settings: via a different mechanism; cited from earlier work

PARP1, sequence (P09874 whole entry, species assumed): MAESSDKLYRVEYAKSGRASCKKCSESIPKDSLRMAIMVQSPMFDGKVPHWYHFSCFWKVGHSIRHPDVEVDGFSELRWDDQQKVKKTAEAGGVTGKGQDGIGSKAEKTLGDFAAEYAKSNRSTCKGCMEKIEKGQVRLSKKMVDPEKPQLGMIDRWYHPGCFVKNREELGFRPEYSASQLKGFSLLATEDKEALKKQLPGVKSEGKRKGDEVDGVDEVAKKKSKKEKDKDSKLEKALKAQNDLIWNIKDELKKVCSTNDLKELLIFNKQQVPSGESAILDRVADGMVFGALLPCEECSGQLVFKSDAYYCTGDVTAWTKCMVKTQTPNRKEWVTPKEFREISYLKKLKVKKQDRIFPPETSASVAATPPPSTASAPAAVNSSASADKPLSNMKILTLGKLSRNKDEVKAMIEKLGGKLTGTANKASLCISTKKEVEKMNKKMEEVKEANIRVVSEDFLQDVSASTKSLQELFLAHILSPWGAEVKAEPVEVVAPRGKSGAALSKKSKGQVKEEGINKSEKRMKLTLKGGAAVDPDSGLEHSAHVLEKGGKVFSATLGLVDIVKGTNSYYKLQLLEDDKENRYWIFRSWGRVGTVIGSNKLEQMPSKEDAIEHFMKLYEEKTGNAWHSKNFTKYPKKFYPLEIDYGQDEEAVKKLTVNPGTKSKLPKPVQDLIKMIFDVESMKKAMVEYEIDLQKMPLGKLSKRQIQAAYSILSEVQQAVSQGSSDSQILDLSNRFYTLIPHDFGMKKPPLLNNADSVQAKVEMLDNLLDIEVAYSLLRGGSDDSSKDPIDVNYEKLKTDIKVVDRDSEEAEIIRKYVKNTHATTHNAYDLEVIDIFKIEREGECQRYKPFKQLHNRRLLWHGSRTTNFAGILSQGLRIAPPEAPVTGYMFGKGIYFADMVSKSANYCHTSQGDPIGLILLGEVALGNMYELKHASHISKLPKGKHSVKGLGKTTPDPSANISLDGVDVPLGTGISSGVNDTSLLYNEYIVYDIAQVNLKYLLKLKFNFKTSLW

Structure (SMILES): NC(=O)c1ccc[n+]([C@@H]2O[C@H](CO)[C@@H](O)[C@H]2O)c1 [NR, nicotinamide riboside]
- metabolism and aspects of ageing (elderly mice): improve metabolism and reverse aspects of ageing

Structure (SMILES): NC(=O)c1cccc(N)c1 [3-aminobenzimide]
- LPS-induced drop in NAD^+ levels [1]: completely blocked
- raise NAD^+ levels in activated macrophages, compared with NMN [1]: beyond NMN

Structure (SMILES): O=C(O)c1ccccc1-c1ccccc1C(=O)Nc1ccc2c(c1)[nH]c(=O)c1ccccc12 [NSC-127133]
- LPS-induced drop in NAD^+ levels [1]: able to block the fall
- raise NAD^+ levels in activated macrophages, compared with NMN [1]: beyond NMN

Structure (SMILES): CN(C)CC(=O)Nc1ccc2[nH]c(=O)c3ccccc3c2c1 [PJ-34]
- cleavage of caspase-1 (inflammasome activation) [2]: suppress
- LPS-induced drop in NAD^+ levels [1]: completely blocked
- raise NAD^+ levels in activated macrophages, compared with NMN [1]: beyond NMN

Structure (SMILES): NC(=O)c1ccc[n+]([C@@H]2O[C@H](COP(=O)([O-])O)[C@@H](O)[C@H]2O)c1 [NMN, nicotinamide mononucleotide]
- metabolism and aspects of ageing (elderly mice): improve metabolism and reverse aspects of ageing
- secretion of IL-1β and IL-18 [3]: suppress
- secretion of IL-6 or TNF [3]: not
- protection of NAD^+ levels in macrophages exposed to LPS [1]: slightly protect

Structure (SMILES): NC(=O)c1ccc(Oc2ccc(C(N)=O)cc2)cc1 [OUL35]
- activity against PARP1 (PARP1): no activity
- NAD^+ levels in aged spleens (spleen NAD+ levels): raises NAD^+ levels
- cleavage of caspase-1 (inflammasome activation) [2]: suppress
- inhibition of PARPs 4, 10, 14, and 16 (PARPs 4, 10, 14, and 16): inhibitor
- LPS-induced drop in NAD^+ levels [1]: blocked the drop
- raise NAD^+ levels in activated macrophages, compared with NMN [1]: beyond NMN
- metabolite changes induced by LPS (BMDM): blunt the changes induced by LPS

Structure (SMILES): NC(=O)C1=CN([C@@H]2O[C@H](CO)[C@@H](O)[C@H]2O)C=CC1 [NRH, Nicotinamide riboside hydride]
- poly-ADP-ribose (PAR) levels [4]: restoration
- nigericin-induced ROS production [5]: suppress
- cleavage of caspase-1 (inflammasome activation) [2]: suppression of inflammasome activation
- NAD^+ levels in spleen (LPS induced sepsis; 6 hours after I.P. injection of LPS, co-injection): protected
- survival (LPS induced sepsis; I.P. injection of LPS, vs LPS alone): moderately increased survival
- protection of NAD^+ levels in macrophages exposed to LPS [1]: protect; also recorded: more potent protectors
- raising NAD^+ levels in BMDMs ([1]; absence and presence of LPS, after 6 hours): extremely potent
- metabolite changes induced by LPS (BMDM): blunt the changes induced by LPS

Structure (SMILES): CCOc1ccccc1Cl [NSC-61610]
- effect in a model of influenza (influenza): anti-inflammatory
- LPS-induced drop in NAD^+ levels [1]: able to block the fall
- raise NAD^+ levels in activated macrophages, compared with NMN [1]: beyond NMN
